Results from patent publication US6911432B2, “Drugs, foods or drinks with the use of algae-derived physiologically active substances” (priority 1997, dated 2005).

Tests used:
MKN45 = assay: antiproliferation assay, MTT method; format: cell-based, human; conditions: for dilution rate of the dilution added to the group whose absorbance at 590 nm was less than one-half of that of the control group: dilution rate 1 corresponds to 5 mM in medium; for IC50: read-out: IC50 (concentration required for 50% proliferation inhibitory rate)
Method: (§1) Each fraction was sterilized by filtration and its 10 μl portion was placed in a well of a 96 well microtiter plate. […] The cell morphology was observed under an optical microscope. […] The absorbance at 590 nm was measured to determine a cell proliferation rate. (2) A 50 mM solution of agarobiose, agarotetraose or agarohexaose obtained in Example 3-(1) was sterilized by filtration and diluted 2-, 4-, 8-, 16-, 32-, 64- and 128-folds with sterilized water. […] [table] The number in Table 3 represents the dilution rate of the dilution added to the group whose absorbance at 590 nm was less than one-half of that of the control group to which water was added. […] Then, for agarobiose, agarotetraose and agarohexaose, the concentrations required for 50% proliferation inhibitory rate (IC50) are calculated based on the change in the absorbance at 590 nm, and are shown in Table 4.

HepG2 = assay: antiproliferation assay, MTT method; format: cell-based, human; conditions: for dilution rate of the dilution added to the group whose absorbance at 590 nm was less than one-half of that of the control group: dilution rate 1 corresponds to 5 mM in medium; for IC50: read-out: IC50 (concentration required for 50% proliferation inhibitory rate)
Method: as §1

MCF7 = assay: antiproliferation assay, MTT method; format: cell-based, human; conditions: for dilution rate of the dilution added to the group whose absorbance at 590 nm was less than one-half of that of the control group: dilution rate 1 corresponds to 5 mM in medium; for IC50: read-out: IC50 (concentration required for 50% proliferation inhibitory rate)
Method: as §1

HT-29 = assay: antiproliferation assay, MTT method; format: cell-based, human; conditions: for dilution rate of the dilution added to the group whose absorbance at 590 nm was less than one-half of that of the control group: dilution rate 1 corresponds to 5 mM in medium; for IC50: read-out: IC50 (concentration required for 50% proliferation inhibitory rate)
Method: as §1

T24 = assay: antiproliferation assay, MTT method; format: cell-based, human; conditions: for dilution rate of the dilution added to the group whose absorbance at 590 nm was less than one-half of that of the control group: dilution rate 1 corresponds to 5 mM in medium; for IC50: read-out: IC50 (concentration required for 50% proliferation inhibitory rate)
Method: as §1

T-47D = assay: antiproliferation assay, MTT method; format: cell-based, human; conditions: for dilution rate of the dilution added to the group whose absorbance at 590 nm was less than one-half of that of the control group: dilution rate 1 corresponds to 5 mM in medium; for IC50: read-out: IC50 (concentration required for 50% proliferation inhibitory rate)
Method: as §1

HeLa S3 = assay: antiproliferation assay, MTT method; format: cell-based, human; conditions: for dilution rate of the dilution added to the group whose absorbance at 590 nm was less than one-half of that of the control group: dilution rate 1 corresponds to 5 mM in medium; for IC50: read-out: IC50 (concentration required for 50% proliferation inhibitory rate)
Method: as §1

A549 = assay: antiproliferation assay, MTT method; format: cell-based, human; conditions: for dilution rate of the dilution added to the group whose absorbance at 590 nm was less than one-half of that of the control group: dilution rate 1 corresponds to 5 mM in medium; for IC50: read-out: IC50 (concentration required for 50% proliferation inhibitory rate)
Method: as §1

HCT116 = assay: antiproliferation assay, MTT method; format: cell-based, human; conditions: for dilution rate of the dilution added to the group whose absorbance at 590 nm was less than one-half of that of the control group: dilution rate 1 corresponds to 5 mM in medium; for IC50: read-out: IC50 (concentration required for 50% proliferation inhibitory rate)
Method: as §1

RPMI1788 = assay: antiproliferation assay, MTT method; format: cell-based, human; conditions: for dilution rate of the dilution added to the group whose absorbance at 590 nm was less than one-half of that of the control group: dilution rate 1 corresponds to 5 mM in medium; for IC50: read-out: IC50 (concentration required for 50% proliferation inhibitory rate)
Method: as §1

RAW 264.7 cells = assay: NO production induced by LPS and IFN-γ after pre-incubation with sample; format: cell-based, mouse; conditions: 10 μl of 5,000 μM solution, pre-incubation 1, 2, 4 or 6 hours before stimulation
Method: (4) RAW 264.7 cells were suspended in the Dulbecco's modified Eagle's medium described in Example 20-(1) at a concentration of 3×10^5 cells/ml, and 500 μl portions thereof were placed in respective wells of a 48 well microtiter plate. The plate was incubated for 37° C. for 10 hours in the presence of 5 % carbon dioxide. To the wells was added 10 μl of aqueous 5,000 μM agarobiose solution and incubated for additional 1, 2, 4 or 6 hours. Then, the culture supernatant was removed from the well and to each well were added 500 μl of fresh Dulbecco's modified Eagle's medium and then 10 μl of aqueous 2.5 μg/ml LPS and aqueous 800 U/ml interferon-Υ (IFN-Υ, sold by Cosmobio, GZM-MG-IFN) solution. The plate was incubated for 1 hour. Then, the culture supernatant was removed from the well and to each well was added 500 μl of fresh Dulbecco's modified Eagle's medium and the plate was incubated for additional 16 hours. The concentration of NO2^− produced by oxidation of NO in the medium was measured according to the same manner as that described in Example 20-(1). As control groups, a group to which neither LPS nor IFN-Υ was added and a group to which agarobiose was not added were provided. All the measurements were carried out in duplicate.

[1] = tested on: Mouse melanoma cell B16BL6; assay: inhibition of melanin production, absorbance at 400 nm; format: cell-based
Method: Mouse melanoma cell B16BL6 suspended in RPMI-1640 containing 10% FBS was placed in a 6 well plate at a concentration of 5×10^4 cells/2 ml medium/well and incubated at 37° C. On the 2nd day, 100 μl of agarobiose solution (2 mg/ml to 0.2 mg/ml) was added thereto, and on the 7th day, the medium was changed and, at the same time, 100 μl of agarobiose solution (2 mg/ml to 0.2 mg/ml) was added thereto. On the 8th day, the cells were collected, DNA, RNA and protein were decomposed, and then the absorbance at 400 nm was measured to examine an activity of inhibiting melanin production.
Namely, after removing the medium by suction, 0.3 ml of 0.25% trypsin dissolved in 20 mM EDTA solution was added to each well and the plate was incubated at 37° C. for 10 minutes. Then, 2 ml of the fresh medium was added to the well and the cells were suspended. The suspension was collected into a test tube. The medium was then removed by centrifugation and the cells were suspended in 2 ml of PBS and centrifuged again. After removing the supernatant, 30 μl of 50 mM sodium acetate buffer (pH 5.0) containing 5 mM manganese chloride and 1 μl of 70,000 U/ml DNase I (manufactured by Takara Shuzo) were added to the cells and thoroughly mixed. The mixture was incubated at 37° C. for 2 hours to decompose DNA. Then, 1 μl of 10 mg/ml ribonuclease A (manufactured by Sigma) was added to the mixture and the resultant mixture was incubated at 50° C. for 1 hour to decompose RNA. Finally, 100 mM Tris-hydrochloric acid buffer (pH 7.8) containing 100 μg/ml proteinase K (manufactured by Sigma), 0.1% Triton x and 10 mM EDTA was added thereto to make the total volume up to 200 μl for 2×10^6 cells, and the mixture was incubated at 37° C. for 16 hours and then the absorbance at 400 nm was measured.

Row | Compound | dilution rate of the dilution added to the group whose absorbance at 590 nm was less than one-half of that of the control group (MKN45) | IC50 (MKN45) | dilution rate of the dilution added to the group whose absorbance at 590 nm was less than one-half of that of the control group (HepG2) | IC50 (HepG2) | dilution rate of the dilution added to the group whose absorbance at 590 nm was less than one-half of that of the control group (MCF7) | IC50 (MCF7) | dilution rate of the dilution added to the group whose absorbance at 590 nm was less than one-half of that of the control group (HT-29) | IC50 (HT-29) | dilution rate of the dilution added to the group whose absorbance at 590 nm was less than one-half of that of the control group (T24) | IC50 (T24) | dilution rate of the dilution added to the group whose absorbance at 590 nm was less than one-half of that of the control group (T-47D) | IC50 (T-47D) | dilution rate of the dilution added to the group whose absorbance at 590 nm was less than one-half of that of the control group (HeLa S3) | IC50 (HeLa S3) | dilution rate of the dilution added to the group whose absorbance at 590 nm was less than one-half of that of the control group (A549) | IC50 (A549) | dilution rate of the dilution added to the group whose absorbance at 590 nm was less than one-half of that of the control group (HCT116) | IC50 (HCT116) | dilution rate of the dilution added to the group whose absorbance at 590 nm was less than one-half of that of the control group (RPMI1788) | IC50 (RPMI1788) | further results
1 | OC[C@H]1O[C@@H](O[C@H]2[C@H]3OC[C@@H]2O[C@@H](O[C@H]2[C@@H](O)[C@@H](CO)O[C@@H](O[C@H]4[C@H]5OC[C@@H]4OC(O)[C@H]5O)[C@@H]2O)[C@H]3O)[C@H](O)[C@@H](O)[C@H]1O (stereo partly drawn) [Agarotetraose, agarotetraose] | 16 | 196 µM | 8 | 413 µM | 16 | 276 µM | 16 | 208 µM | 8 | 399 µM | 16 | 183 µM | 8 | 400 µM | 8 | 494 µM | 32 | 158 µM | 128 | 28 µM | –
2 | OC[C@H]1O[C@@H](O[C@H]2[C@H]3OC[C@@H]2OC(O)[C@H]3O)[C@H](O)[C@@H](O)[C@H]1O (mixture of isomers) [Agarobiose, agarobiose] | 8 | 344 µM | 8 | 652 µM | 16 | 274 µM | 8 | 622 µM | 8 | 352 µM | 16 | 210 µM | 8 | 353 µM | 8 | 570 µM | 16 | 244 µM | 64 | 44 µM | inhibition of NO production induced by LPS and IFN-γ (in words) (RAW 264.7 cells): the longer the pre-incubation time was, the higher the inhibition; Absorbance at 400 nm mean ([1]; agarobiose 10 μg/ml): 0.521; Absorbance at 400 nm mean ([1]; agarobiose 50 μg/ml): 0.392; Absorbance at 400 nm mean ([1]; agarobiose 100 μg/ml): 0.383; activity of inhibiting melanin production (in words) ([1]; agarobiose at 50 and 100 μg/ml): recognized
